In PubChem BioAssay AID330 (DTP/NCI, 2004):
Where “and” joins values, the source holds several entries; their conditions need not be identical. Equal entries are not always repeated. Inconclusive results and toxic doses are left out. How the source made its calls: active means survival T/C of 150% or more; inactive means T/C below 125% in these data.

System: P388 leukemia ip, CD2F1 mice, survival T/C
Assay: NCI In Vivo Anticancer Drug Screen. Data for tumor model P388 Leukemia (intraperitoneal) in CD2F1 (CDF1) mice
Conditions: endpoint: median survival time, higher = longer survival
Summary of the method: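 Mice carrying the transplanted tumor received test compound or vehicle. Survival was recorded in each group, and the value is the treated-group measurement divided by that of the vehicle-treated control group.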

[1] = dose: 50.0 mg/kg/injection, schedule: Q01DX009 (ip), vehicle: saline with Tween-80
[2] = dose: 100.0 mg/kg/injection, schedule: Q01DX009 (ip), vehicle: Klucel (hydroxypropylcellulose) (HPC)
[3] = dose: 200.0 mg/kg/injection, schedule: Q01DX009 (ip), vehicle: Klucel (hydroxypropylcellulose) (HPC)
[4] = dose: 400.0 mg/kg/injection, schedule: Q01DX009 (ip), vehicle: Klucel (hydroxypropylcellulose) (HPC)
[5] = dose: 60.0 mg/kg/injection, schedule: Q01DX005 (ip), vehicle: saline with Tween-80
[6] = dose: 120.0 mg/kg/injection, schedule: Q01DX005 (ip), vehicle: saline with Tween-80
[7] = dose: 50.0 mg/kg/injection, schedule: Q01DX005 (ip), vehicle: saline
[8] = dose: 60.0 mg/kg/injection, schedule: Q01DX005 (ip), vehicle: saline
[9] = dose: 120.0 mg/kg/injection, schedule: Q01DX005 (ip), vehicle: saline
[10] = dose: 240.0 mg/kg/injection, schedule: Q01DX005 (ip), vehicle: saline with Tween-80

Measured: T/C

Nc1ccc(O)c(N)c1
inactive: dose: 0.78 mg/kg/injection, schedule: Q01DX009 (ip), vehicle: saline 99 % of control | dose: 1.56 mg/kg/injection, schedule: Q01DX009 (ip), vehicle: saline 96 % of control | dose: 3.12 mg/kg/injection, schedule: Q01DX009 (ip), vehicle: saline 102 % of control | dose: 6.25 mg/kg/injection, schedule: Q01DX009 (ip), vehicle: saline 105 % of control

Cc1ccnc(NCCCCCCNc2nccc(C)n2)n1
inactive: dose: 100.0 mg/kg/injection, schedule: Q04DX003 (ip), vehicle: saline with Tween-80 87 % of control | dose: 200.0 mg/kg/injection, schedule: Q04DX003 (ip), vehicle: saline with Tween-80 98 % of control | dose: 400.0 mg/kg/injection, schedule: Q04DX003 (ip), vehicle: saline with Tween-80 91 % of control

CCCCOC(=O)C(C)OC(=O)Nc1cccc(C)c1 (centres undefined)
inactive: dose: 100.0 mg/kg/injection, schedule: Q04DX002 (ip), vehicle: Klucel (hydroxypropylcellulose) (HPC) 105 % of control | dose: 200.0 mg/kg/injection, schedule: Q04DX002 (ip), vehicle: Klucel (hydroxypropylcellulose) (HPC) 103 % of control | dose: 400.0 mg/kg/injection, schedule: Q04DX002 (ip), vehicle: Klucel (hydroxypropylcellulose) (HPC) 100 % of control

O=[N+]([O-])/C=C/c1cc2c(cc1O)OCO2
inactive: dose: 75.0 mg/kg/injection, schedule: Q01DX009 (ip), vehicle: Klucel (hydroxypropylcellulose) (HPC) 115 % of control | dose: 150.0 mg/kg/injection, schedule: Q01DX009 (ip), vehicle: Klucel (hydroxypropylcellulose) (HPC) 101 % of control | dose: 300.0 mg/kg/injection, schedule: Q01DX009 (ip), vehicle: Klucel (hydroxypropylcellulose) (HPC) 115 % of control

CS(=O)(=O)N1C2CC3CCCCC3CC21 (centres undefined)
inactive: dose: 25.0 mg/kg/injection, schedule: Q04DX002 (ip), vehicle: saline with Tween-80 99 % of control | dose: 50.0 mg/kg/injection, schedule: Q04DX002 (ip), vehicle: saline with Tween-80 99 % of control | dose: 100.0 mg/kg/injection, schedule: Q04DX002 (ip), vehicle: saline with Tween-80 105 % of control and 110 % of control | dose: 200.0 mg/kg/injection, schedule: Q04DX002 (ip), vehicle: saline with Tween-80 112 % of control | dose: 400.0 mg/kg/injection, schedule: Q04DX002 (ip), vehicle: saline with Tween-80 112 % of control

CCCc1n(O)c(C)c(C)[n+]1[O-]
inactive: [1] 91 % of control | dose: 100.0 mg/kg/injection, schedule: Q01DX009 (ip), vehicle: saline with Tween-80 100 % of control | dose: 200.0 mg/kg/injection, schedule: Q01DX009 (ip), vehicle: saline with Tween-80 104 % of control

CCOc1ccc(N=Nc2ccc(N)cc2N)cc1
inactive: [2] 118 % of control | [3] 100 % of control | [4] 93 % of control

CCCCCCCC(=O)C1C(=O)OC(C)(C)OC1=O
inactive: [5] 100 % of control | [6] 100 % of control

c1cc2nc(-c3ccc4cc(C5=NCCN5)[nH]c4c3)[nH]c2cc1C1=NCCN1
inactive: dose: 12.5 mg/kg/injection, schedule: Q01DX005 (ip), vehicle: saline 106 % of control | dose: 25.0 mg/kg/injection, schedule: Q01DX005 (ip), vehicle: saline 106 % of control | [7] 99 % of control

Cc1ccc(/C=C/C(=N/NC(=O)c2ccccc2)C(C)CN(C)C)cc1 (centres undefined)
inactive: [8] 99 % of control | [9] 111 % of control

Cc1ccc(-c2sc3ccccc3c(=O)c2CCl)cc1CO
inactive: [5] 100 % of control | [6] 95 % of control | [10] 90 % of control

COC1C/C(=N\O)C2OC(c3ccccc3)OCC2O1 (centres undefined)
inactive: dose: 1.56 mg/kg/injection, schedule: Q01DX009 (ip), vehicle: other 96 % of control | dose: 3.13 mg/kg/injection, schedule: Q01DX009 (ip), vehicle: other 104 % of control | dose: 6.25 mg/kg/injection, schedule: Q01DX009 (ip), vehicle: other 106 % of control | dose: 12.5 mg/kg/injection, schedule: Q01DX009 (ip), vehicle: other 92 % of control | dose: 25.0 mg/kg/injection, schedule: Q01DX009 (ip), vehicle: other 101 % of control and 94 % of control | dose: 50.0 mg/kg/injection, schedule: Q01DX009 (ip), vehicle: other 99 % of control | dose: 100.0 mg/kg/injection, schedule: Q01DX009 (ip), vehicle: other 100 % of control | dose: 200.0 mg/kg/injection, schedule: Q01DX009 (ip), vehicle: other 98 % of control | dose: 400.0 mg/kg/injection, schedule: Q01DX009 (ip), vehicle: other 100 % of control

COC(=O)C(C#N)=C(SC)SC
inactive: dose: 12.5 mg/kg/injection, schedule: Q01DX009 (ip), vehicle: saline with Tween-80 112 % of control | dose: 25.0 mg/kg/injection, schedule: Q01DX009 (ip), vehicle: saline with Tween-80 116 % of control | [1] 103 % of control and 91 % of control

CC1CCCC(C)N1NC(=O)C(C)(C)C (centres undefined)
inactive: [7] 99 % of control | dose: 100.0 mg/kg/injection, schedule: Q01DX005 (ip), vehicle: saline 115 % of control | dose: 200.0 mg/kg/injection, schedule: Q01DX005 (ip), vehicle: saline 101 % of control

C[C@H](CCC1=NC(C)(C)CO1)C1CCC2[C@@H]3C(O)C[C@@H]4CC(O)CC[C@]4(C)C3CC[C@@]21C (some centres undefined)
inactive: [5] 90 % of control | [6] 87 % of control

O=C(C(=O)c1ccc(C(=O)C(=O)c2ccccc2)cc1)c1ccccc1
inactive: [5] 104 % of control | [6] 93 % of control | [10] 96 % of control

CCCCC1C(=O)N2C=C(c3ccccc3)c3ccccc3N2C1=O (centres undefined)
inactive: dose: 25.0 mg/kg/injection, schedule: Q01DX009 (ip), vehicle: Klucel (hydroxypropylcellulose) (HPC) 104 % of control | dose: 50.0 mg/kg/injection, schedule: Q01DX009 (ip), vehicle: Klucel (hydroxypropylcellulose) (HPC) 111 % of control | [2] 95 % of control | [3] 105 % of control | [4] 95 % of control

COc1cc(/C=C2/Cc3ccccc3C2=O)ccc1O
inactive: [8] 106 % of control | [9] 106 % of control | dose: 240.0 mg/kg/injection, schedule: Q01DX005 (ip), vehicle: saline 96 % of control

C#CCC(B1OCCO1)B1OCCO1
inactive: dose: 25.0 mg/kg/injection, schedule: Q01DX001 (ip), vehicle: saline 100 % of control | dose: 50.0 mg/kg/injection, schedule: Q01DX001 (ip), vehicle: saline 90 % of control

C=C(Cl)C(=NC(C)(C)C)Nc1ccccc1
inactive: dose: 50.0 mg/kg/injection, schedule: Q01DX005 (ip), vehicle: Klucel (hydroxypropylcellulose) (HPC) 102 % of control | dose: 100.0 mg/kg/injection, schedule: Q01DX005 (ip), vehicle: Klucel (hydroxypropylcellulose) (HPC) 92 % of control

O=C(CCC(=O)ON1C(=O)CCC1=O)OCCOC(=O)CCC(=O)ON1C(=O)CCC1=O
inactive: dose: 50.0 mg/kg/injection, schedule: Q01DX005 (ip), vehicle: saline with Tween-80 116 % of control | dose: 100.0 mg/kg/injection, schedule: Q01DX005 (ip), vehicle: saline with Tween-80 114 % of control | dose: 200.0 mg/kg/injection, schedule: Q01DX005 (ip), vehicle: saline with Tween-80 98 % of control

CNC(=O)N(C)c1cc(N(C)C)nc(OC)n1
inactive: dose: 4.5 mg/kg/injection, schedule: Q01DX005 (ip), vehicle: saline + alcohol 100 % of control | dose: 9.0 mg/kg/injection, schedule: Q01DX005 (ip), vehicle: saline + alcohol 90 % of control | dose: 18.0 mg/kg/injection, schedule: Q01DX005 (ip), vehicle: saline + alcohol 98 % of control | dose: 36.0 mg/kg/injection, schedule: Q01DX005 (ip), vehicle: saline + alcohol 98 % of control | dose: 72.0 mg/kg/injection, schedule: Q01DX005 (ip), vehicle: saline + alcohol 101 % of control
